Data reported in patent publication US5703093A, “Compounds and methods for the treatment of cardiovascular, inflammatory and immune disorders” (Cytomed, Inc., priority 1995, dated 1997).
pIC50: −log10 of the molar value. Several values for one entry are separate records, joined by “and”; a condition that tells them apart may be missing. Identical values can stand only once. One block for each compound: values may come before it.

Experiments:
[1] = biological target: T1, Cytosol 5-Lipoxygenase of Rat Basophile Leukemia Cells (Rattus norvegicus, UniProt P12527); assay: Effect on cytosol 5-lipoxygenase of rat basophile leukemia (RBL-2H3) cells; assay type: biochemical; conditions: RBL-2H3 cytosol preparation, [14C]arachidonic acid; repeat determinations
T1 construct: The supernatant was then removed and stored in aliquots; endogenous in cells; host or cells: RBL-2H3 (rat basophilic leukemia) cells, sonicate, 20,000 x g supernatant
T1 sequence (P12527 1-673): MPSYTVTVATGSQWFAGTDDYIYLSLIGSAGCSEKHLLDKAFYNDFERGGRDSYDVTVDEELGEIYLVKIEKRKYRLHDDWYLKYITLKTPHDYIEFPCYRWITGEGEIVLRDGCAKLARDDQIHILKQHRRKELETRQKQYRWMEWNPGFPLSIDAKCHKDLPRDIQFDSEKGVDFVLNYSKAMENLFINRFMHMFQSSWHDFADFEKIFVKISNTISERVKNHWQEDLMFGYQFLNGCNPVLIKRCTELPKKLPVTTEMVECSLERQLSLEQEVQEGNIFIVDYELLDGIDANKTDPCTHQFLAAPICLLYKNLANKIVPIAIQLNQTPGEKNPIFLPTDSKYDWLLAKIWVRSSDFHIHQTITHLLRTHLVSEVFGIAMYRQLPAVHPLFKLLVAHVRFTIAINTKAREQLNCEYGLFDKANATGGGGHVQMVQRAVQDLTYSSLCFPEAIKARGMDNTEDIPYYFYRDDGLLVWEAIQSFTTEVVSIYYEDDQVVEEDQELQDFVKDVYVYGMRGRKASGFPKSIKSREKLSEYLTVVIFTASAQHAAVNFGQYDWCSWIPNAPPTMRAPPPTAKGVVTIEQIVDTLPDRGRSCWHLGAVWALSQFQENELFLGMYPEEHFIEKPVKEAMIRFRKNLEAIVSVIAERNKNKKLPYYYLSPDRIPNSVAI
Protocol: A wide variety of biological assays have also been used to evaluate the ability of a compound to inhibit the enzyme 5-lipoxygenase. For example, a cytosol 5-lipoxygenase of rat basophilic leukemia cells (RBL) has been widely utilized in studies on leukotriene biosynthesis. Compounds that inhibit 5-lipoxygenase decrease the levels of leukotrienes.
Effect of Compounds on Cytosol 5-Lipoxygenase of Rat Basophile Leukemia Cells
RBL-2H3 cells were grown to confluence in tissue culture flasks according to Carter et al. (J PharmExp Ther 256(3); 929-937, 1991). The cells were harvested and washed five times in calcium-and magnesium-free D-PBS. The cells were suspended at 2×10^7 /ml in 10 mM BES, 10 mM PIPES, pH 6.8, 1 mM EDTA, and then sonicated. […]
The 5-LO activity in the RBL-2H3 preparation was determined as follows: 0.1 ml reactions consisting of 0.7 mM CaCl2, 100 mM NaCl, 1 mM EDTA, 10 mM BES, 10 MM PIPES, pH 7.4, varying concentrations of test compound dissolved in DMSO (7.5% DMSO final in assay), and an amount of the RBL-2H3 preparation that will convert 15% of the arachidonic acid substrate mixture to oxygenated products (determined experimentally for each RBL-2H3 preparation), were incubated for 20 minutes at room temperature. […] The film was developed, scanned using a densitometer, and the peak areas of arachidonic acid and its product(s) are calculated. […]

[2] = system: Leukotriene B4 Production in Ionophore-stimulated human whole blood; assay: Inhibition of leukotriene B4 production in ionophore-stimulated human whole blood (HWB); assay type: cell-based; conditions: A23187-stimulated, LTB4 by EIA, repeat determinations
Protocol: Another biological assay used to evaluate the ability of a compound to inhibit the enzyme 5-lipoxygenase is based on the classic pharmacological model of inflammation induced by inhibition of LTB4 from ionophore stimulated human whole blood.
Inhibition of Leukotriene B4 Production in Ionophore-stimulated human whole blood
Human blood was drawn into heparinized blood collection tubes, and aliquoted in 1 ml portions into 1.5 ml microfuge tubes. Test compound ([…]) of varying concentrations, dissolved in DMSO, was added to the blood sample and incubated for 15 minutes at 37° C. Calcium ionophore ([…], A23187) in DMSO was added to a final concentration of […], and the samples were incubated for 30 minutes at 37° C. Samples are then centrifuged at 1100×g (2500 rpm, H1000B rotor, in a Sorvall centrifuge) for 10 minutes at 4° C. Supernatant ([…]) was transferred into a 1.5 ml microfuge tube, […] of cold methanol added, and proteins precipitated on ice for 30 minutes. The samples were centrifuged at 110×g for 10 minutes at 4° C., and the supernatant assayed for LTB4 using a commercially available EIA kit (Cayman Chemical) according to manufacturer's specifications.

[3] = system: whole blood 5-lipoxygenase (LTB4); assay: Ex-vivo rat whole blood 5-lipoxygenase evaluation (ex vivo LTB4); assay type: in vivo
[4] = system: whole blood 5-lipoxygenase (LTB4); assay: Ex-vivo mouse whole blood 5-lipoxygenase evaluation (ex vivo LTB4); assay type: in vivo; conditions: 3 mg/k iv
Protocol: Ex-vivo mouse whole blood 5-lipoxygenase evaluation
CD-1 female mice, weighing 18-25 grams, and CD female rats, weighing 150-230 grams, were obtained from Charles River Labs. Test compounds were dissolved in 0.5% DMSO in 0.9% NaCl for administration in mice (0.5 mg/ml) and in an alcohol vehicle (2% benzyl alcohol, 1% ethanol, 40% PEG 300, 10% propylene glycol, 47% of 5% dextrose and 3.5% pluronic F-68 in DiH2 O) for use in rats (5 mg/ml). […] Heparinized whole blood (0.3 ml) was added into 1.5 ml Eppendorf centrifuge tube containing […] of 2 mM calcium ionophore A23187 (the final concentration of A23187 was […]). The sample was incubated for 30 minutes in a water bath at 37° C., and then centrifuged for 2 minutes. The plasma was diluted (x120) and assayed for LTB4 using EIA.

PAF = PAF (Homo sapiens, UniProt P25105); conditions: reported in the literature; cited from earlier work
5-lipoxygenase = biological target: T2, 5-lipoxygenase (Homo sapiens, UniProt P09917); conditions: reported in the literature; cited from earlier work
T2 sequence (P09917 1-674): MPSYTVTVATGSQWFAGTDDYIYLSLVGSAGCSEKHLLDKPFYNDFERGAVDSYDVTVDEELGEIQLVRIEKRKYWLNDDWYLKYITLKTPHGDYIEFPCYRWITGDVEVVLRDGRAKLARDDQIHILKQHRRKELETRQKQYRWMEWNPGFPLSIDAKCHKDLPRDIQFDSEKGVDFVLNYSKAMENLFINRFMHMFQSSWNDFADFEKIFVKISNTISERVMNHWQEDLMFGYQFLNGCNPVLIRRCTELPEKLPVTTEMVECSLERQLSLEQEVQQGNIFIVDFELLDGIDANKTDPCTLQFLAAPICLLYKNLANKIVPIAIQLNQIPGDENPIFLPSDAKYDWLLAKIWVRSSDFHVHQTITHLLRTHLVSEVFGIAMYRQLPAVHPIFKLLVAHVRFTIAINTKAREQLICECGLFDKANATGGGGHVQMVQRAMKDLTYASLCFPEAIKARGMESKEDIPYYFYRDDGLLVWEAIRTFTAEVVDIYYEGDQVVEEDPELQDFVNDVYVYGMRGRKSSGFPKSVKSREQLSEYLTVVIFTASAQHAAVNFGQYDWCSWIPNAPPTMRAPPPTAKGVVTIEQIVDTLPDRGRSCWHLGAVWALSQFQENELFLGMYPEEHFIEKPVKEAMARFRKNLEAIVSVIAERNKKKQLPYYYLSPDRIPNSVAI

Chain of PAF (P25105 whole entry): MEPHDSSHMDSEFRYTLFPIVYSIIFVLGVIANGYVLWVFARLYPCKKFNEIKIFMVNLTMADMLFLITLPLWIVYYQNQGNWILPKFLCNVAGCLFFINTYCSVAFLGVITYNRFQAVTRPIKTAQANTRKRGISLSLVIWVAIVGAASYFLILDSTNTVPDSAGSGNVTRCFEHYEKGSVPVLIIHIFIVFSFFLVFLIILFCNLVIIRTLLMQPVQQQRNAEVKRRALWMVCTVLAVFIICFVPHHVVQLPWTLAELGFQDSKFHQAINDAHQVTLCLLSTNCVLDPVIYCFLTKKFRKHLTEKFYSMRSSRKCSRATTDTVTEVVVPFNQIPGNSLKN

pIC50 [1]: 5.87 and 5.86
pIC50 [2]: 6.57
pIC50 ([2]; Homo sapiens): 6.82
Compound: NC(=O)N(O)CCC#C[C@H]1CC[C@H](COc2ccc(F)cc2)O1

pIC50 [1]: 5.70 and 5.90 and 5.81 and 6.06
pIC50 [2]: 6.28
pIC50 ([2]; Homo sapiens): 6.37
Compound: NC(=O)N(O)CCC#C[C@H]1CC[C@@H](COc2ccc(F)cc2)O1
ex vivo LTB4 % inh. ([3]; 2 mg/k po, 60 minutes): 86%
ex vivo LTB4 % inh. ([3]; 2 mg/k po, 360 minutes): 63%

pIC50 ([2]; Homo sapiens): 6.74
Compound: NC(=O)N(O)CCC#C[C@@H]1CC[C@H](COc2ccc(F)cc2)O1

Compound: NC(=O)N(O)CCC#C[C@@H]1CC[C@@H](COc2ccc(F)cc2)O1
ex vivo LTB4 % inh. ([4]; 15 minutes): 94%
ex vivo LTB4 % inh. ([4]; 60 minutes): 86%
ex vivo LTB4 % inh. ([4]; 180 minutes): 44%
ex vivo LTB4 % inh. ([3]; 2 mg/k po, 60 minutes): 93%
ex vivo LTB4 % inh. ([3]; 2 mg/k po, 360 minutes): 5%
ex vivo LTB4 % inh. ([3]; 5 mg/k po, 900 minutes): 29%

Compound: COc1cc([C@H]2CC[C@H](c3cc(OC)c(OC)c(OC)c3)S2)cc(OC)c1OC (relative stereo) [L-653,150, trans-2,5-bis-(3,4,5-trimethoxyphenyl)tetrahydrothiophene]
PAF antagonism (PAF): potent PAF antagonist
inhibition of 5-lipoxygenase (5-lipoxygenase): moderate inhibitor of 5-lipoxygenase

pIC50 ([2]; Homo sapiens): 6.82
Compound: NC(=O)N(O)CCCC[C@@H]1CC[C@@H](COc2ccc(F)cc2)O1
ex vivo LTB4 % inh. ([4]; 15 minutes): 89%
ex vivo LTB4 % inh. ([4]; 60 minutes): 22%
ex vivo LTB4 % inh. ([4]; 180 minutes): 36%
ex vivo LTB4 % inh. ([3]; 2 mg/k po, 900 minutes): 34%
ex vivo LTB4 % inh. ([3]; 5 mg/k po, 900 minutes): 34%

pIC50 ([2]; Homo sapiens): 6.38
Compound: NC(=O)N(O)CCCC[C@H]1CC[C@H](COc2ccc(F)cc2)O1 (single isomer, unassigned)
